Read-outs that look alike come from different tables or passages of the source.
Key:
[1] = biological target: recombinant PIM-1 (Homo sapiens, UniProt P11309); test: PIM-1 kinase assay (radiometric, 15 uM ATP, DMSO 4%); format: biochemical; conditions: for inhibition at 0.5 µM: Table 5, compound at 500 nM, read-out: PIM1: % inh 500 nM
[2] = tested on: K-562; test: Alamar Blue cell proliferation assay, K-562; format: cell-based; conditions: Homo sapiens
Method: (§1) A representative cell-proliferation assay protocol using Alamar Blue dye (stored at 4° C., use 20 ul per well) is described hereafter.
(§2) 96-Well Plate Setup and Compound Treatment
(§3) a. Split and trypsinize cells.
(§4) b. Count cells using hemocytometer.
(§5) c. Plate 4,000-5,000 cells per well in 100 μl of medium and seed into a 96-well plate according to the following plate layout. Add cell culture medium only to wells B10 to B12. Wells B1 to B9 have cells but no compound added.
(§6) d. Add 100 μl of 2× drug dilution to each well in a concentration shown in the plate layout above. At the same time, add 100 μl of media into the control wells (wells 1310 to B12). Total volume is 200 μl/well.
(§7) e. Incubate four (4) days at 37° C., 5% CO2 in a humidified incubator.
(§8) f. Add 20 μl Alamar Blue reagent to each well.
(§9) g. Incubate for four (4) hours at 37° C., 5% CO2 in a humidified incubator.
(§10) h. Record fluorescence at an excitation wavelength of 544 nm and emission wavelength of 590 nm using a microplate reader.
(§11) In the assays, cells are cultured with a test compound for approximately four days, the dye is then added to the cells and fluorescence of […] dye is detected after approximately four hours. Different types of cells can be utilized in the assays (e.g., HCT-116 human colorectal carcinoma cells, PC-3 human prostatic cancer cells and MiaPaca human pancreatic carcinoma cells).

[3] = tested on: MiaPaca human pancreatic carcinoma cells; test: Alamar Blue cell proliferation assay, MiaPaCa; format: cell-based
Method: as §1, §2, §3, §4, §5, §6, §7, §8, §9, §10, §11

[4] = tested on: PC-3 human prostatic cancer cells; test: Alamar Blue cell proliferation assay, PC3; format: cell-based; conditions: Table 5, read-out: AB: PC3 IC50
Method: as §1, §2, §3, §4, §5, §6, §7, §8, §9, §10, §11

[5] = tested on: MV-4-11; test: Alamar Blue cell proliferation assay, MV-4-11; format: cell-based; conditions: Homo sapiens
Method: as §1, §2, §3, §4, §5, §6, §7, §8, §9, §10, §11

[6] = tested on: HCT-116 human colorectal carcinoma cells; test: Alamar Blue cell proliferation assay, HCT-116; format: cell-based
Method: as §1, §2, §3, §4, §5, §6, §7, §8, §9, §10, §11

[7] = tested on: MDAMB-231; test: Alamar Blue cell proliferation assay, MDAMB-231; format: cell-based; conditions: Homo sapiens, MDA-MB-231, Table 3, read-out: AB: MDAMB-231
Method: as §1, §2, §3, §4, §5, §6, §7, §8, §9, §10, §11

[8] = tested on: phospho FLT3; test: phospho FLT3 cell-based data; conditions: Table 4
[9] = tested on: phospho BAD; test: phospho BAD cell-based data; conditions: Table 4
[10] = biological target: recombinant human PIM2 (Homo sapiens, UniProt Q9P1W9); test: PIM-2 assay (radiometric); format: biochemical; conditions: Table 6; 15 μm ATP; read-out: PIM2: IC50 (15 μm ATP)
Method: Test compounds dissolved and diluted in DMSO ([…]) were added to a reaction mixture comprising […] of 5× Reaction Buffer (40 mM MOPS pH 7.0, 5 mM EDTA), […] of recombinant human PIM2 solution (4 ng PIM-2 dissolved in dilution buffer (20 mM MOPS pH 7.0; EDTA 1 mM; 5% Glycerol; 0.01% Brij 35; […]; […] 2-mercaptoethanol; 1 mg/ml BSA)) and 8 ul of water. Reactions were initiated by the addition of 10 ul of ATP Solution (49% (15 mM MgCl2; 75 uM ATP) 1% ([γ-33P]ATP: Stock 1 mCi/100 μl; 3000 Ci/mmol (Perkin Elmer)) and 10 ul of substrate peptide solution ([…], dissolved in water at a concentration of 1 mM), Reactions were maintained for 10 min at 30° C. The reactions were quenched with 100 ul of 0.75% Phosphoric acid, then transferred to and filtrered through a Phosphocellulose filter plate (Millipore, MSPH-N6B-50). After washing each well 4 times with 0.75% Phosphoric acid, scintillation fluid (20 uL) was added to each well and the residual radioactivity was measured using a Wallac […] counter.

[11] = K562, Table 5, read-out: AB: K-562 IC50
[12] = MIA PaCa-2, Table 5, read-out: AB: MiaPaCa IC50
[13] = MV4-11, Table 5, read-out: AB: MV-4-11 IC50
[14] = Table 5, read-out: AB: HCT-116 IC50
[15] = Table 4, 15 um ATP, read-out: PIM1: IC50 (15 um ATP)
[16] = K562, Table 4, read-out: AB: K-562
[17] = MIA PaCa-2, Table 4, read-out: AB: MiaPaCa
[18] = MV4-11, Table 4, read-out: AB: MV-4-11

recombinant PIM-1, sequence (P11309 whole entry): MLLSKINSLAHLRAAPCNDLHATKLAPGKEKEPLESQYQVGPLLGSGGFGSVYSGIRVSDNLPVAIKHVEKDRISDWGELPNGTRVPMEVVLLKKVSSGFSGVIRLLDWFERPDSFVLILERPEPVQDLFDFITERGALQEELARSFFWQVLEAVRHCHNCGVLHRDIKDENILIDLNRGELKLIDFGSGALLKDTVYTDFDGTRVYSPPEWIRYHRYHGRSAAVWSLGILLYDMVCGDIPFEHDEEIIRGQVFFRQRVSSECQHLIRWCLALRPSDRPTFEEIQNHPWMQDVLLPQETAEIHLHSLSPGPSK
recombinant human PIM2, sequence (Q9P1W9 whole entry): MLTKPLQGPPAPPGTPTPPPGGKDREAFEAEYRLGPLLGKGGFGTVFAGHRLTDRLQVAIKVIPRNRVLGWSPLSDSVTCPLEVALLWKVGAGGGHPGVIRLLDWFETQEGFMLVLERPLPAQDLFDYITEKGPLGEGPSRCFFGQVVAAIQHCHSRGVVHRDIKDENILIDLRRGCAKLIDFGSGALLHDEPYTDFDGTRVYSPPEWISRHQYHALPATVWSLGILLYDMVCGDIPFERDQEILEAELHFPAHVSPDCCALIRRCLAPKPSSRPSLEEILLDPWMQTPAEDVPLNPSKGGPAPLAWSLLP

## Cn1cncc1CNC(=O)c1cccc(-c2coc(/C=C3/C(=O)Nc4ccccc43)c2)c1
[1]
  inhibition at 0.5 µM: -14.6%
[2]; [11]
  IC50: > 10 µM
[3]; [12]
  IC50: > 10 µM
[4]
  IC50: > 10 µM
[5]; [13]
  IC50: 0.998 µM
[6]; [14]
  IC50: > 10 µM

## O=C1Nc2ccccc2/C1=C\c1cc(-c2cccc(C(=O)NCc3ccncc3)c2)co1
[1]
  inhibition at 0.5 µM: -4.22%
[2]; [11]
  IC50: > 10 µM
[3]; [12]
  IC50: > 10 µM
[4]
  IC50: > 10 µM
[5]; [13]
  IC50: 0.168 µM
[6]; [14]
  IC50: > 10 µM

## CCN(CC)CCNC(=O)c1ccc(-c2ccc(/C=C3/C(=O)Nc4ccc(Cl)cc43)o2)cc1 [drawing 216]
[1]; Table 3, DMSO 4%, read-out: PIM1: IC50 (DMSO 4%)
  IC50: < 1 µM
[2]; K562, Table 3, read-out: AB: K-562
  IC50: > 10 µM
[3]; MIA PaCa-2, Table 3, read-out: AB: MiaPaCa
  IC50: > 10 µM
[7]
  IC50: > 10 µM
[5]; MV4-11, Table 3, read-out: AB: MV-4-11
  IC50: > 1 µM

## CN(C)CCNC(=O)c1cccc(-c2ccc(/C=C3/C(=O)Nc4ccc(Cl)cc43)o2)c1 [drawing 232]
[1]; [15]
  IC50: 0.289 µM
[2]; [16]
  IC50: 0.367 µM
[3]; [17]
  IC50: 1.94 µM
[5]; [18]
  IC50: 2.99 µM
[6]; Table 4, read-out: AB: HCT-116
  IC50: 1.19 µM
[8]
  IC50: 5.29 µM
[9]
  IC50: 0.444 µM

## O=C1Nc2ccc(Cl)cc2/C1=C\c1ccc(-c2cccc(C(=O)NCCCn3ccnc3)c2)o1 [drawing 233]
[1]; [15]
  IC50: 0.376 µM
[2]; [16]
  IC50: 0.288 µM
[3]; [17]
  IC50: 0.233 µM
[5]; [18]
  IC50: 0.067 µM
[6]; Table 4, read-out: AB: HCT-116
  IC50: 0.314 µM
[8]
  IC50: > 10 µM
[9]
  IC50: 1.86 µM

## CN1CCCC(NC(=O)c2cccc(-c3coc(/C=C4/C(=O)Nc5ccc(F)cc54)c3)c2)C1 (stereo not drawn) [drawing 249]
[1]
  inhibition at 0.5 µM: 6.11%
[2]; [11]
  IC50: 3.12 µM
[3]; [12]
  IC50: > 10 µM
[4]
  IC50: 7 µM
[5]; [13]
  IC50: 1.01 µM
[6]; [14]
  IC50: 4.65 µM

## CCN1CCCC1CNC(=O)c1cccc(-c2coc(/C=C3/C(=O)Nc4ccc(F)cc43)c2)c1 (stereo not drawn) [drawing 250]
[1]
  inhibition at 0.5 µM: 17.1%
[2]; [11]
  IC50: 0.941 µM
[3]; [12]
  IC50: > 10 µM
[4]
  IC50: > 10 µM
[5]; [13]
  IC50: 0.485 µM
[6]; [14]
  IC50: 5.23 µM

## Cn1cncc1CNC(=O)c1cccc(-c2coc(/C=C3/C(=O)Nc4ccc(F)cc43)c2)c1 [drawing 252]
[1]
  inhibition at 0.5 µM: 12.7%
[2]; [11]
  IC50: > 10 µM
[3]; [12]
  IC50: > 10 µM
[4]
  IC50: > 10 µM
[5]; [13]
  IC50: 1.38 µM
[6]; [14]
  IC50: > 10 µM

## CN1CCCCC1CNC(=O)c1cccc(-c2coc(/C=C3/C(=O)Nc4ccc(F)cc43)c2)c1 (stereo not drawn) [drawing 253]
[1]
  inhibition at 0.5 µM: 9.42%
[2]; [11]
  IC50: 1.65 µM
[3]; [12]
  IC50: > 10 µM
[4]
  IC50: > 10 µM
[5]; [13]
  IC50: 0.627 µM
[6]; [14]
  IC50: 4.47 µM

## CCN(CC)CCNC(=O)c1cccc(-c2coc(/C=C3/C(=O)Nc4ccc(F)cc43)c2)c1 [drawing 254]
[1]
  inhibition at 0.5 µM: 11.5%
[2]; [11]
  IC50: 2.44 µM
[3]; [12]
  IC50: > 10 µM
[4]
  IC50: > 10 µM
[5]; [13]
  IC50: 0.271 µM
[6]; [14]
  IC50: 3.6 µM

## O=C1Nc2ccc(F)cc2/C1=C\c1cc(-c2cccc(C(=O)NCc3ccncc3)c2)co1 [drawing 255]
[1]
  inhibition at 0.5 µM: -19.1%
[2]; [11]
  IC50: > 10 µM
[3]; [12]
  IC50: > 10 µM
[5]; [13]
  IC50: 1.57 µM
[6]; [14]
  IC50: > 10 µM

## CN(C)C1CCN(C(=O)c2cccc(-c3coc(/C=C4/C(=O)Nc5ccc(F)cc54)c3)c2)CC1 [drawing 256]
[1]
  inhibition at 0.5 µM: 10.8%
[2]; [11]
  IC50: 3.7 µM
[3]; [12]
  IC50: > 10 µM
[4]
  IC50: 7.53 µM
[5]; [13]
  IC50: 0.516 µM
[6]; [14]
  IC50: 3.85 µM

## C/C(=C1\C(=O)Nc2ccc(Cl)cc21)c1ccc(-c2ccc(C(=O)N3CCCN(C)CC3)cc2)o1 [drawing 258]
[10]
  IC50: < 1 µM

## CN1CCCN(C(=O)c2ccc(-c3ccc(/C=C4/C(=O)Nc5ccc(Cl)cc54)o3)cc2)CC1 [drawing 259]
[10]
  IC50: < 1 µM

## CCN(CC)CCNC(=O)c1ccc(-c2ccc(/C=C3/C(=O)Nc4ccc(Cl)cc43)o2)cc1 [drawing 260]
[10]
  IC50: < 1 µM
